Assay results taken from ChEMBL document CHEMBL2331348, “Positive allosteric modulators of nicotinic acetylcholine receptor” (ACS Med Chem Lett, 2013).

Target: Neuronal acetylcholine receptor subunit alpha-7 (Homo sapiens, UniProt P36544)
Test: Positive allosteric modulator activity at human alpha7 nAChR expressed in rat GH4C1 cells assessed as potentiation of acetylcholine-induced response by FDSS Ca2+ assay
Format: cell-based, GH4-C1

Neuronal acetylcholine receptor subunit alpha-7, sequence (P36544 whole entry): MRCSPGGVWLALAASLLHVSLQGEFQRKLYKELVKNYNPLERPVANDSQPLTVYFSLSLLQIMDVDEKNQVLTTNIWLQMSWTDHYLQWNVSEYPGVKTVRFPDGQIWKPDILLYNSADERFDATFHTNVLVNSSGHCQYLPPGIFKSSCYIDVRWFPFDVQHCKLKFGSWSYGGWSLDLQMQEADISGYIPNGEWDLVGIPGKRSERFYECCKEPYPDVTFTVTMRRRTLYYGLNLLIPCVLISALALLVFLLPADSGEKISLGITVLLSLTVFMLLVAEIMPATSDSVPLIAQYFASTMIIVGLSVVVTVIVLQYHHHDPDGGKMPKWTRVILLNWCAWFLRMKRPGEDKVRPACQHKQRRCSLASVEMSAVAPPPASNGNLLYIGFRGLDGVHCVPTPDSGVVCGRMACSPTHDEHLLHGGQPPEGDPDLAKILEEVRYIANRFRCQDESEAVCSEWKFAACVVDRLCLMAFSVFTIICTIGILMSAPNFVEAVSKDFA

## C[C@H](NC(=O)[C@H]1C[C@@H]1c1ccccc1)c1ccc(S(C)(=O)=O)nc1
  EC50: 2000 nM
